US20240381872A1, “SUBSTITUTED 2,3-DIHYDRO[1,3]THIAZOLO[4,5-B]PYRIDINES, SALTS THEREOF AND THEIR USE AS HERBICIDALLY ACTIVE SUBSTANCES” (BAYER AKTIENGESELLSCHAFT, priority 2021, published 2024)

Assays:
Assay type in all cases: in vivo
[1] = system: Digitaria sanguinalis (DIGSA); assay: Herbicidal pre-emergence action, section A (Table A12); conditions: application rate 320 g/ha
Summary of the method: (§1)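 Percent herbicidal effect, visually graded about 3 weeks post-treatment against untreated pots, reflects pre-emergence application of WP or EC formulations to the soil surface over seeds sown in sandy loam, using 0.5% additive and 600 l of water per hectare.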

Setaria viridis (SETVI) [2] = assay: Herbicidal pre-emergence action, section A (Table A8); conditions: application rate 1280 g/ha
Summary of the method: as §1

[3] = system: Matricaria inodora (MATIN); assay: Herbicidal pre-emergence action, section A (Table A6); conditions: visual grading after ca. 3 weeks vs untreated controls
Summary of the method: as §1

[4] = system: Matricaria inodora (MATIN); assay: Herbicidal post-emergence action, section B (Table B6); conditions: application rate 1280 g/ha; visual rating about 3 weeks after treatment vs untreated controls
Description: (§2) Seeds of mono- and dicotyledonous weed plants were placed in plastic pots in sandy loam soil (doubly sown with in each case one species of mono- or dicotyledonous weed plants per pot), covered with soil and cultivated in a greenhouse under controlled growth conditions. 2 to 3 weeks after sowing, the test plants were treated at the one-leaf stage. The compounds of the invention, formulated in the form of wettable powders (WP) or as emulsion concentrates (EC), were applied onto the green parts of the plants as aqueous suspension or emulsion with addition of 0.5% additive at a water application rate of 600 liters per hectare (converted). After the test plants had been kept in the greenhouse under optimum growth conditions for about 3 weeks, the activity of the preparations was rated visually in comparison to untreated controls. For example, 100% activity=the plants have died, 0% activity=like control plants.

Kochia scoparia (KCHSC) [5] = assay: Herbicidal pre-emergence action, section A (Table A4); conditions: visual grading after ca. 3 weeks vs untreated controls
Summary of the method: as §1

Lolium rigidum (LOLRI) [6] = assay: Herbicidal pre-emergence action, section A (Table A5); conditions: visual grading after ca. 3 weeks vs untreated controls
Summary of the method: as §1

[7] = system: Echinochloa crus-galli (ECHCG); assay: Herbicidal pre-emergence action, section A (Table A3); conditions: visual grading after ca. 3 weeks vs untreated controls
Summary of the method: as §1

Setaria viridis (SETVI) [8] = assay: Herbicidal post-emergence action, section B (Table B8); conditions: application rate 1280 g/ha; visual rating about 3 weeks after treatment vs untreated controls
Summary of the method: (§3)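 Under optimum greenhouse conditions, sandy-loam-grown weeds at the one-leaf stage are sprayed with aqueous suspension or emulsion carrying 0.5% additive, 600 liters per hectare. About 3 weeks later, visual percent activity is scored relative to untreated controls.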

[9] = system: Amaranthus retroflexus (AMARE); assay: Herbicidal pre-emergence action, section A (Table A11); conditions: application rate 320 g/ha
Summary of the method: as §1

[10] = system: Echinochloa crus-galli (ECHCG); assay: Herbicidal post-emergence action, section B (Table B3); conditions: application rate 1280 g/ha, rated visually after about 3 weeks
Summary of the method: as §3

Poa annua (POAAN) [11] = assay: Herbicidal pre-emergence action, section A (Table A7); conditions: application rate 320 g/ha; visual grading after ca. 3 weeks vs untreated controls
Summary of the method: as §1

Stellaria media (STEME) [12] = assay: Herbicidal pre-emergence action, section A (Table A9); conditions: application rate 320 g/ha
Summary of the method: as §1

[13] = system: Abutilon theophrasti (ABUTH); assay: Herbicidal pre-emergence action, section A (Table A1); conditions: visual grading after ca. 3 weeks vs untreated controls
Text: Seeds of mono- and dicotyledonous weed plants were sown in plastic pots (double sowings with one species of mono- and one species of dicotyledonous weed plants per pot), in sandy loam, and covered with soil. The compounds according to the invention, formulated in the form of wettable powders (WP) or as emulsifiable concentrates (EC), were applied to the surface of the covering soil as aqueous suspension or emulsion, with the addition of 0.5% of an additive, at an application rate of 600 l of water per hectare (converted). Following treatment, the pots were placed in a greenhouse and kept under optimum growth conditions for the test plants. The visual grading of the damage to the test plants was carried out after ca. 3 weeks in comparison to untreated controls (herbicidal effect in percent (%): 100% effect=plants have died off, 0% effect=as control plants).

Poa annua (POAAN) [14] = assay: Herbicidal post-emergence action, section B (Table B7); conditions: visual rating about 3 weeks after treatment vs untreated controls
Summary of the method: as §3

Veronica persica (VERPE) = assay: Herbicidal pre-emergence action, section A (Table A10); conditions: application rate 1280 g/ha
Summary of the method: as §1

[15] = system: Alopecurus myosuroides (ALOMY); assay: Herbicidal pre-emergence action, section A (Table A2); conditions: application rate 1280 g/ha; visual grading after ca. 3 weeks vs untreated controls
Summary of the method: as §1

[16] = system: Triticum aestivum (TRZAS); assay: Post-emergence effects on crop plants, section F (Table F2); conditions: Triticum aestivum, 504 h, application rate 320 g/ha, read-out: post-emergence activity against TRZAS in %
Text: (§4) Seeds of mono- and dicotyledonous weed plants and crop plants were sown, in plastic or organic planting pots, in sandy loam, covered with soil and grown in a greenhouse under controlled growth conditions. 2 to 3 weeks after sowing, the test plants were sprayed in the single-leaf stage. The compounds according to the invention, formulated in form of wettable powders (WP) or as emulsifiable concentrates (EC), were sprayed onto the green plant parts as aqueous suspension or emulsion, with the addition of 0.5% of an additive, at an application rate of 600 l of water/ha (converted). The test plants were placed in the greenhouse for ca. 3 weeks under optimum growth conditions, and then the effect of the preparations was assessed visually in comparison with untreated controls (herbicidal effect in percent (%): 100% effect=plants have died off, 0% effect=as control plants). Tables F1 to F4 below show the effects of selected compounds of the general formula (I) according to Table 1 on various crop plants and an application rate corresponding to 320 g/ha or below obtained by the experimental procedure mentioned above.

Zea mays (ZEAMX) [17] = assay: Post-emergence effects on crop plants, section F (Table F1); conditions: Zea mays, 504 h, application rate 320 g/ha, read-out: post-emergence activity against ZEAMX in %
Text: as §4

Glycine max (GLXMA) [18] = assay: Post-emergence effects on crop plants, section F (Table F4); conditions: Glycine max, 504 h, application rate 320 g/ha, read-out: post-emergence activity against GLXMA in %
Text: as §4

Zea mays (ZEAMX) [19] = assay: Pre-emergence effects on crop plants, section D (Table D1); conditions: application rate 320 g/ha; visual grading after ca. 3 weeks
Text: (§5) Seeds of mono- and dicotyledonous weed plants and crop plants were sown, in plastic or organic planting pots, in sandy loam and covered with soil. The compounds according to the invention, formulated in the form of wettable powders (WP) or as emulsifiable concentrates (EC), were applied to the surface of the covering soil as aqueous suspension or emulsion, with the addition of 0.5% of an additive, at an application rate of 600 l of water/ha (converted).
(§6) Following treatment, the pots were placed in a greenhouse and kept under optimum growth conditions for the test plants. The visual grading of the damage to the test plants was carried out after ca. 3 weeks in comparison to untreated controls (herbicidal effect in percent (%): 100% effect=plants have died off, 0% effect=as control plants).
(§7) Tables D1 to D5 below show the effects of various compounds of the general formula (I) according to Table 1 on various crop plants and an application rate corresponding to 320 g/ha or below obtained by the experimental procedure mentioned above in Biological Examples, Section C.

Brassica napus (BRSNW) [20] = assay: Post-emergence effects on crop plants, section F (Table F5); conditions: Brassica napus, 504 h, application rate 320 g/ha, read-out: post-emergence activity against BRSNW in %
Text: as §4

[21] = system: Triticum aestivum (TRZAS); assay: Pre-emergence effects on crop plants, section D (Table D2); conditions: application rate 320 g/ha; visual grading after ca. 3 weeks
Text: as §5, §6, §7

Brassica napus (BRSNW) [22] = assay: Pre-emergence effects on crop plants, section D (Table D5); conditions: application rate 80 g/ha; visual grading after ca. 3 weeks
Text: as §5, §6, §7

Glycine max (GLXMA) [23] = assay: Pre-emergence effects on crop plants, section D (Table D4); conditions: application rate 80 g/ha; visual grading after ca. 3 weeks
Text: as §5, §6, §7

[24] = system: Abutilon theophrasti (ABUTH); assay: Herbicidal post-emergence action, section B (Table B1); conditions: application rate 320 g/ha, rated visually after about 3 weeks
Summary of the method: as §3

[25] = system: Amaranthus retroflexus (AMARE); assay: Herbicidal post-emergence action, section B (Table B11); conditions: application rate 1280 g/ha; visual rating about 3 weeks after treatment vs untreated controls
Summary of the method: as §3

Kochia scoparia (KCHSC) [26] = assay: Herbicidal post-emergence action, section B (Table B4); conditions: application rate 1280 g/ha; visual rating about 3 weeks after treatment vs untreated controls
Summary of the method: as §3

Lolium rigidum (LOLRI) [27] = assay: Herbicidal post-emergence action, section B (Table B5); conditions: application rate 1280 g/ha; visual rating about 3 weeks after treatment vs untreated controls
Description: as §2

Stellaria media (STEME) [28] = assay: Herbicidal post-emergence action, section B (Table B9); conditions: application rate 320 g/ha; visual rating about 3 weeks after treatment vs untreated controls
Summary of the method: as §3

## COC(=O)CS(=O)(=O)N1CSc2cc(C)c(-c3ccccc3F)nc21 [Example I-121]
[1]
  pre-emergence activity against DIGSA in %: 100%
Setaria viridis (SETVI) [2]
  pre-emergence activity against SETVI in %: 100%
[3]; application rate 320 g/ha
  pre-emergence activity against MATIN in %: 90%
[4]
  post-emergence activity against MATIN in %: 90%
Kochia scoparia (KCHSC) [5]; application rate 320 g/ha
  pre-emergence activity against KCHSC in %: 90%
Lolium rigidum (LOLRI) [6]; application rate 320 g/ha
  pre-emergence activity against LOLRI in %: 100%
[7]; application rate 320 g/ha
  pre-emergence activity against ECHCG in %: 100%
Setaria viridis (SETVI) [8]
  post-emergence activity against SETVI in %: 90%
[9]
  pre-emergence activity against AMARE in %: 90%
[10]
  post-emergence activity against ECHCG in %: 90%
Poa annua (POAAN) [11]
  pre-emergence activity against POAAN in %: 100%
Stellaria media (STEME) [12]
  pre-emergence activity against STEME in %: 90%
[13]; application rate 1280 g/ha
  pre-emergence activity against ABUTH in %: 90%
Poa annua (POAAN) [14]; application rate 320 g/ha
  post-emergence activity against POAAN in %: 90%
Veronica persica (VERPE)
  pre-emergence activity against VERPE in %: 90%
[15]
  pre-emergence activity against ALOMY in %: 90%

## CCS(=O)(=O)N1CS(=O)(=O)c2cc(C)c(-c3ccccc3F)nc21 [Example I-146, 3-(ethylsulfonyl)-5-(2-fluorophenyl)-6-methyl-2,3-dihydro[1,3]thiazolo[4,5-b]pyridine 1,1-dioxide]
[16]
  percent crop plant damage (wheat, post-emergence) at 320 g/ha: 0%
Zea mays (ZEAMX) [17]
  percent crop plant damage (phytotoxicity) on Zea mays, post-emergence at 320 g/ha: 0%
Glycine max (GLXMA) [18]
  percent crop plant damage at 320 g/ha: 0%
Zea mays (ZEAMX) [19]
  pre-emergence activity against ZEAMX in % (crop plant damage): 0%
Brassica napus (BRSNW) [20]
  crop plant damage (phytotoxicity) in % at 320 g/ha: 0%
[21]
  pre-emergence activity against TRZAS in % (crop plant damage): 0%
Brassica napus (BRSNW) [22]
  pre-emergence activity against BRSNW in % (crop plant damage): 0%
Glycine max (GLXMA) [23]
  pre-emergence activity against GLXMA in % (crop plant damage): 0%

## Cc1cc2c(nc1-c1cccc(F)c1F)N(C(=O)C1(C)CC(Cl)=NO1)CS2 (stereo not shown) [Example I-152]
[1]
  pre-emergence activity against DIGSA in %: 90%
Setaria viridis (SETVI) [2]
  pre-emergence activity against SETVI in %: 100%
[3]; application rate 1280 g/ha
  pre-emergence activity against MATIN in %: 90%
[24]
  post-emergence activity against ABUTH in %: 90%
[25]
  post-emergence activity against AMARE in %: 100%
Kochia scoparia (KCHSC) [26]
  post-emergence activity against KCHSC in %: 90%
Kochia scoparia (KCHSC) [5]; application rate 1280 g/ha
  pre-emergence activity against KCHSC in %: 100%
Lolium rigidum (LOLRI) [6]; application rate 1280 g/ha
  pre-emergence activity against LOLRI in %: 100%
[7]; application rate 1280 g/ha
  pre-emergence activity against ECHCG in %: 90%
Setaria viridis (SETVI) [8]
  post-emergence activity against SETVI in %: 90%
[9]
  pre-emergence activity against AMARE in %: 100%
Poa annua (POAAN) [11]
  pre-emergence activity against POAAN in %: 100%
Stellaria media (STEME) [12]
  pre-emergence activity against STEME in %: 90%
[13]; application rate 320 g/ha
  pre-emergence activity against ABUTH in %: 90%
Lolium rigidum (LOLRI) [27]
  post-emergence activity against LOLRI in %: 90%
Stellaria media (STEME) [28]
  post-emergence activity against STEME in %: 90%
Poa annua (POAAN) [14]; application rate 1280 g/ha
  post-emergence activity against POAAN in %: 90%
Veronica persica (VERPE)
  pre-emergence activity against VERPE in %: 90%
[15]
  pre-emergence activity against ALOMY in %: 90%
